Literature values as cited in patent US10238717B2 (Latitude Pharmaceuticals, Inc., priority 2014, dated 2019).
Like-named read-outs stand apart in the source and are kept apart here.

| SMILES | Concentration of sugar in water at saturation (25° C.) | Concentration of sugar in water at saturation (20° C.) | further results |
| --- | --- | --- | --- |
| OC[C@H]1O[C@@H](O[C@H]2[C@H](O)[C@@H](O)C(O)O[C@@H]2CO)[C@H](O)[C@@H](O)[C@H]1O (some centres unmarked) [lactose] | about 21.6 % w/v |  |  |
| OC[C@@H](O)[C@@H](O)[C@H](O)[C@H](O)CO [mannitol] |  |  | Concentration of sugar in water at saturation (temperature not given): about 25 % w/v |
| OC[C@H]1O[C@@](CO)(O[C@H]2O[C@H](CO)[C@@H](O)[C@H](O)[C@H]2O)[C@@H](O)[C@@H]1O [sucrose] | about 200 % w/v |  |  |

Further lines, with some results ahead:

| Concentration of sugar in water at saturation (25° C.) | Concentration of sugar in water at saturation (20° C.) | SMILES | further results |
| --- | --- | --- | --- |
|  | about 22 % w/v | OC[C@@H](O)[C@@H](O)[C@H](O)[C@@H](O)CO [sorbitol] |  |
|  | about 68.9 % w/v | OC[C@H]1O[C@H](O[C@H]2O[C@H](CO)[C@@H](O)[C@H](O)[C@H]2O)[C@H](O)[C@@H](O)[C@@H]1O [trehalose] |  |
